# Measurements as given in patent US10736912B2, “Compositions containing PUFA and/or uridine and methods of use thereof” (MASSACHUSETTS INSTITUE OF TECHNOLOGY, priority 2005, dated 2020).
# Legend:
# [1] = system: brain phospholipid levels; assay: Brain phospholipid levels in rat pups of treated pregnant and nursing mothers; type: in vivo; conditions: for PC / PE / PI / SM / Total Phospholipids: rat pups, postnatal day 20, mean
# Experimental: In another study, pregnant rats were allowed to consume ad libitum, for 10 days before parturition and 20 days while nursing, either a choline-containing control diet or this diet supplemented with uridine as UMP; half of each group also received DHA or its diluent daily, by gavage. Pups were then sacrificed and brain slices were examined to determine numbers of hippocampal dendritic spines.
# Pregnant and nursing rats were administered DHA and/or uridine as described in Example 9. At 20 days post-birth, rats were sacrificed and brain samples were obtained and assayed for phospholipids. Administration of DHA alone increased brain PC, PI, PE, and sphingomyelin (SM) per cell (DNA) by 36, 166, 38, and 78%, respectively. UMP markedly amplified the effects of DHA to 66, 210, 68, and 99% of control, respectively (Table 8). These increases were greater than those observed in adult animals. Similar results were obtained when normalizing to protein (Table 9). Thus, administration of DHA and/or uridine to pregnant and nursing mothers is able to increase phospholipid levels in the offspring.
# [2] = system: SHSY-5Y cells; assay: 14C-choline incorporation into phospholipids in SHSY-5Y cells; type: cell-based, human; conditions: 10 μM fatty acid, 18 hr; FIG. 3A
# Experimental: SHSY-5Y cells were grown to near confluency in DMEM+10% FBS in 35 mm dishes. Cells were incubated for 18 hr in serum-free DMEM+1% FBS containing 30 μM choline+/−10 μM of DHA, arachidonic acid, or palmitic acid. Cells were then labeled, and labeled phospholipids were quantified as described for Example 1.
# DHA was dissolved in ethanol to a […] concentration and frozen in 10 microliter aliquots at −80° C. For each experiment, one aliquot was diluted in ethanol to 10 micromolar; the volume giving the desired final solution in incubation medium was mixed with an equal volume of BSA solution (1 gm/ml).
# The effect of omega-6 fatty acids on phospholipid synthesis was next examined in SHSY-5Y cells, a human neuroblastoma cell line. In this case, phospholipid synthesis was enhanced by arachidonic acid, an omega-6 fatty acid, but not by DHA or palmitic acid (FIG. 3A).
# The effect of arachidonic acid on phospholipid synthesis in SHSY-5Y cells was further characterized as described for omega-3 fatty acids and PC-12 cells in Example 2.
# [3] = system: brain phospholipid levels; assay: Brain phospholipid levels in gerbils given UMP diet and/or PUFA by gavage; type: in vivo, gerbil
# Experimental: Cells were homogenized in 100 volumes of ice-cold deionized water using a tissue degrader (Polytron PT 10-35, Kinematica AG, Switzerland); 1 ml of aliquots were then mixed with 3 ml of chloroform+methanol mixture (2:1 v/v) and vortexed vigorously for 30 seconds. After cooling for 1 h on ice, the mixture was mixed sequentially with 3 ml of chloroform+methanol mixture (2:1 v/v) and 1 ml of ice-cold deionized water. The mixture was vortexed vigorously and allowed to stand overnight in the cold room (18 h). The organic (lower) and aqueous (upper) phases of the mixtures were separated by centrifugation (10 min at 4° C.; 1000 g). An aliquot (2 ml) of the upper phase was used for determination of CDP-Choline (see below), and 0.1-0.4 ml aliquots of the lower phase were dried under vacuum for phospholipid analysis. Residues of 0.1 ml aliquots of the lower phase were assayed for total phospholipid content by measuring phosphorus. Residues of 0.4 ml aliquots of the lower phase were reconstituted in 40 μl methanol and subjected to thin-layer chromatography using silica G plates (Adsorbosil Plus-1®, Alltech), and a system consisting of chloroform/ethanol/triethylamine/water (30:34:30:8) as the mobile phase. Phospholipid standards were used to identify the corresponding bands under UV light after the plates were sprayed with 0.1% diphenylhexatriene in petroleum ether. Bands for individual phospholipid classes (PC, PE, SM, PS and PI) were scraped off the plates and extracted into 1 ml of methanol; dried under vacuum; and assayed for phosphorus content. Total phosphorus was determined by comparison with standard curves by using KH2PO4 run with each assay. To each sample was added 0.5 ml of 4.5% HclO4/27% H2SO4 and tubes were heated at 180° C. for 3 h. After cooling to room temperature, 5 ml of the color reagent (a 10:1 dilution of solutions containing 2.5 mg/ml ammonium molybdate, 8.2 mg/ml sodium acetate and 100 mg/ml ascorbic acid respectively) was added and the tubes were incubated for 2 h, 37° C. Absorbance was measured spectrophotometrically at 820 nm. Phospholipid mass was determined by multiplying the phosphorus content by 25.
# Control standard diet (Table 4) consisted of Teklad Global 16% protein rodent diet (Harlan Teklad, Madison, Wis.), which contained 0.1% choline chloride (CC), corresponding to a daily dose of 50 mg/kg/day. UMP was provided as 0.5% UMP·2Na^+ weight/weight, added to the control diet, also prepared by Harlan Teklad, corresponding to 240 mg/kg/day UMP. DHA was administered as 300 mg/kg/day in 200 microliter (mcL)/day 5% Arabic Gum solution, while groups not receiving DHA were administered vehicle (5% Arabic Gum) alone. DHA was provided by Nu-Chek Prep (Elysian, Minn.) and UMP by Numico (Wagenigen, NL).
# Gerbils were anesthetized with ketamine and xylazine (80 and 10 mg/kg bwt, i.p.) and sacrificed by immersing the head into liquid nitrogen for 2 min, followed by decapitation. Brains were immediately and quickly (30 seconds) removed using a bone rongeur and stored at −80° C.
# Frozen brain hemispheres were weighed and homogenized in 100 volumes of ice-cold deionized water using a tissue degrader (Polytron PT 10-35, Kinematica AG, Switzerland), then analyzed as described in Example 1.
# Protein in whole brain homogenate sample was measured for using bicinchoninic acid reagent (Perkin Elmer, Norwalk, Conn., USA). DNA was measured by measuring 460 nm emission of samples on a fluorometer in the presence of bisbenzimidizole, a fluorescent dye known as Hoechst H 33258 (American Hoechst Corporation), which has an excitation maximum at 356 nm and an emission maximum of 458 when bound to DNA.
# Male gerbils weighing 80-100 g were divided into 4 groups of 8 gerbils and administered the supplements depicted in Table 1: […]
# [4] = Table 9, nmol per microgram DNA
smiles,measurement,setting,value
"CCC=CCC=CCC=CCC=CCC=CCC=CCCC(=O)O [DHA, 4,7,10,13,16,19-docosahexaenoic acid]",PC,"[1]; Table 8, nmol per mg protein",115.7 nmol/mg protein
same,PE,"[1]; Table 8, nmol per mg protein",95.7 nmol/mg protein
same,PI,"[1]; Table 8, nmol per mg protein",5.49 nmol/mg protein
same,SM,"[1]; Table 8, nmol per mg protein",7.52 nmol/mg protein
same,Total Phospholipids,"[1]; Table 8, nmol per mg protein",322.8 nmol/mg protein
same,PC,[1]; [4],12.02 nmol/microgram DNA
same,PE,[1]; [4],9.98 nmol/microgram DNA
same,PI,[1]; [4],0.571 nmol/microgram DNA
same,SM,[1]; [4],0.792 nmol/microgram DNA
same,Total Phospholipids,[1]; [4],33.80 nmol/microgram DNA
same,Increase in brain PC per cell (DNA),[1]; rat pups 20 days post-birth,36%
same,Increase in brain PE per cell (DNA),[1]; rat pups 20 days post-birth,38%
same,Increase in brain PI per cell (DNA),[1]; rat pups 20 days post-birth,166%
same,Increase in brain sphingomyelin (SM) per cell (DNA),[1]; rat pups 20 days post-birth,78%
same,Phospholipid synthesis enhanced,[2],not
same,Brain phospholipid levels,"[3]; 3 weeks, Table 6",increased
same,Increase in levels of total phospholipids over control group,"[3]; 4 weeks, gerbil brain",12%
same,Total PtdCho,[3]; Table 5 part A,185 ± 12 nmol/mg prt
same,Total PtdEtn,[3]; Table 5 part A,78 ± 5 nmol/mg prt
same,Total PtdSer,[3]; Table 5 part A,39 ± 3 nmol/mg prt
same,Total Ptdins,[3]; Table 5 part A,32 ± 2 nmol/mg prt
